Calls of active or inactive are those of the source. No cut-off for these calls is given here.
Columns and labels:
Alpha glucosidase [1] = biological target: T1, Alpha glucosidase (Homo sapiens, UniProt O43451+P10253+P14410+Q2M2H8); experiment: Mixed type inhibition of alpha-glucosidase (unknown origin) using PNP-G as substrate by Lineweaver-Burk plot analysis; type: protein assay
Alpha glucosidase [2] = biological target: T1, Alpha glucosidase; experiment: Inhibition of alpha-glucosidase (unknown origin) using PNP-G as substrate measured for 15 mins by spectrophotometry; type: protein assay
[3] = biological target: T2, Tyrosine-protein phosphatase non-receptor type 1 (Homo sapiens) (UniProt P18031); experiment: Reversible inhibition of recombinant human PTP1B (1 to 322 residues) expressed in Escherichia coli using P-NPP as substrate after 10 mins by spectrophotometry
T2 sequence (whole entry): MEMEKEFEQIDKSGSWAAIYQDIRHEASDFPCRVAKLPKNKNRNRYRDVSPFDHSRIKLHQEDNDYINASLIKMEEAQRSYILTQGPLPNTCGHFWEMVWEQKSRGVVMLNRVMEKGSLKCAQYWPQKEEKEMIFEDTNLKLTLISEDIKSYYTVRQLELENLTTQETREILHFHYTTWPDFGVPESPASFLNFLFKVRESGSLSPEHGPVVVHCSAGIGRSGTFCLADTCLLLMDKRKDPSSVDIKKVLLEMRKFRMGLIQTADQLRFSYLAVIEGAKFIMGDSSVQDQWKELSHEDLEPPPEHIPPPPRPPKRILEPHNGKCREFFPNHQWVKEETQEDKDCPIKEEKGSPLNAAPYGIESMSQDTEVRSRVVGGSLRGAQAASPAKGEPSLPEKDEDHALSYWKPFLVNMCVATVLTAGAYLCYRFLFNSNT

[4] = biological target: T2, Tyrosine-protein phosphatase non-receptor type 1 (Homo sapiens); experiment: Inhibition of recombinant human PTP1B (1 to 322 residues) expressed in Escherichia coli assessed as forward rate constant for enzyme-inhibitor bound conformation using P-NPP as substrate incubated with enzyme for 30 mins by UV-spectrophotometric method
Alpha glucosidase [5] = biological target: T1, Alpha glucosidase; experiment: Reversible inhibition of alpha-glucosidase (unknown origin) using PNP-G as substrate measured for 15 mins by spectrophotometry; type: protein assay
Alpha glucosidase [6] = biological target: T1, Alpha glucosidase; experiment: Inhibition of alpha-glucosidase (unknown origin) using PNP-G as substrate by Dixon plot analysis; type: protein assay
[7] = biological target: T2, Tyrosine-protein phosphatase non-receptor type 1 (Homo sapiens); experiment: Competitive inhibition of recombinant human PTP1B (1 to 322 residues) expressed in Escherichia coli using P-NPP as substrate after 10 mins by Lineweaver-Burk plot analysis
[8] = biological target: T3, Tyrosine-protein phosphatase non-receptor type 1 (Homo sapiens, UniProt P18031); experiment: Inhibition of recombinant human PTP1B (1 to 322 residues) expressed in Escherichia coli using P-NPP as substrate after 10 mins by Dixon plot analysis
T3 sequence (P18031 whole entry): T2 sequence (whole entry)

[9] = biological target: T3, Tyrosine-protein phosphatase non-receptor type 1; experiment: Inhibition of recombinant human PTP1B (1 to 322 residues) expressed in Escherichia coli using P-NPP as substrate after 10 mins by spectrophotometry
[10] = biological target: T3, Tyrosine-protein phosphatase non-receptor type 1; experiment: Time dependent inhibition of recombinant human PTP1B (1 to 322 residues) expressed in Escherichia coli using P-NPP as substrate preincubated with enzyme for 30 mins by UV-spectrophotometric method; details: read-out: Ki(app)
Alpha glucosidase [11] = biological target: T1, Alpha glucosidase; experiment: Mixed type inhibition of alpha-glucosidase (unknown origin) assessed as enzyme-substrate-inhibitor complex formation using PNP-G as substrate by Lineweaver-Burk plot analysis; type: protein assay

SMILES	Mixed-type inhibition (qualitative) (Alpha glucosidase [1])	IC50 (Alpha glucosidase [2]) [µM]	inhibition [3]	K [4] [M⁻¹ s⁻¹]	inhibition (Alpha glucosidase [5])	Ki (Alpha glucosidase [6]) [µM]	inhibition type (Lineweaver-Burk) [7]	Ki [8] [µM]	IC50 [9] [µM]	Ki [10] [µM]	Ki (Alpha glucosidase [11]) [µM]	inhibition (Alpha glucosidase [1])
C=C(C)C(O)Cc1c(O)c(C/C=C(\C)CCC=C(C)C)c2oc3ccc(O)cc3c(=O)c2c1O (configuration not stated)	Active	4.8	Active	50000	Active	4.2	Active	2.1 to 2.4	2.4	2.4	6.6	–
CC(C)=CCc1c(O)c(CC=C(C)C)c2oc3ccc(O)cc3c(=O)c2c1O	Active	25.5	–	–	–	19.2	Active	11.1	10.5	–	–	–
COc1c(O)cc2oc3cc(O)c(CCC(C)(C)O)c(O)c3c(=O)c2c1CC=C(C)C	Active	30.7	–	–	–	25.1	Active	22.9	24.1	–	–	–
C=C(C)C(O)CC/C(C)=C/COc1ccc2oc3cc(O)cc(O)c3c(=O)c2c1 (configuration not stated)	Active	13.7	–	–	–	13	Active	29.5	25.2	–	–	–
C=C(CCC=C(C)C)C(O)Cc1c(O)c(CC=C(C)C)c(O)c2c(=O)c3cc(O)ccc3oc12 (configuration not stated)	Active	10.1	–	–	–	8.2	Active	8.9	12.5	–	–	–
COc1c(O)cc2oc3cc(O)c(CC=C(C)C)c(O)c3c(=O)c2c1CC=C(C)C [MANGOSTIN]	Active	5.7	–	–	–	7.3	Active	3.2	5.5	–	–	–
CC(C)=CCc1c(O)cc2oc3cc(O)c(O)c(CC=C(C)C)c3c(=O)c2c1O	–	1.7	–	–	–	1.4	Active	2.7	2.8	–	–	Active
COc1c(O)ccc2c(=O)c3c(O)cc4c(c3oc12)C(C)(C)C(CO)O4 (configuration not stated)	Active	72.7	–	–	–	33.9	Active	32.7	52.5	–	–	–
CC(C)=CCC/C(C)=C/COc1cc2oc3ccc(O)cc3c(=O)c2c(O)c1CC=C(C)C	Active	28.4	–	–	–	27.2	Active	5.1	7.05	–	–	–
CC(C)=CCC/C(C)=C/Cc1c(O)c(CC=C(C)C)c(O)c2c(=O)c3cc(O)ccc3oc12 [COCHINCHINONE A]	Active	17.4	–	–	–	13.4	Active	3.1	5.2	–	–	–
CC(C)=CCCC(C)(O)C1Cc2c(c(CC=C(C)C)c(O)c3c(=O)c4cc(O)ccc4oc23)O1 (configuration not stated)	Active	16.1	–	–	–	9.9	Active	3.4	7.2	–	–	–
CC(C)=CCC/C(C)=C/COc1ccc2oc3cc(O)cc(O)c3c(=O)c2c1	Active	20.6	–	–	–	17.7	Active	19.9	35.1	–	–	–
